{
  "source": "patent US8269051B2",
  "about": "“Wickerol and method for producing the same” (The Kitasato Institute, priority 2008, dated 2012)",
  "key": {"MDCK cells": {"system": "MDCK cells", "assay": "Proliferation of MDCK cells alone (cytotoxicity)", "assay_type": "cell-based, canine", "details": "Canis lupus familiaris; MDCK cells without virus; read-out: IC50, inhibition of proliferation of the MDCK cells alone"}, "[1]": {"system": "the microorganisms shown in the Table 3", "assay": "Antimicrobial activity, overall statement", "assay_type": "cell-based", "details": "against the microorganisms shown in the Table 3", "method": "Antimicrobial activity of the wickerol of the present invention was as follows. Each circular filter paper (Advantec, diameter: 6 mm) was soaked with 10 μl of methanol solution of the wickerol (1 mg/ml), and then allowed to air-dry for a predetermined time to remove a solvent. After the solvent was removed, the circular filter paper was placed on each of the following test microorganism-containing agar plates, and cultured for 24 hours at 35° C. Thereafter, a diameter of a growth inhibitory circle formed around each of the circular filter papers was measured, and the results were shown in Table 3."}, "[2]": {"system": "influenza virus A/PR/8/34", "details": "ratio of MDCK cytotoxicity IC50 to antiviral IC50"}, "[3]": {"system": "influenza virus A/PR/8/34", "assay": "microbe, parasite or virus in culture", "details": "unidentified influenza virus, PR/8, MDCK, 72 h, read-out: IC50, inhibition of replication of influenza virus A/PR/8/34 through the infection of the MDCK cells"}},
  "data": [
    {"smiles": "CC1CCC2CC3(C)CCC4C3C1(CCC4(C)O)C2(C)C", "note": "(stereo not shown) [wickerol]", "values": [
      {"measurement": "IC50", "setting": "MDCK cells", "result": 7, "unit": "µg/mL"},
      {"measurement": "antimicrobial activity", "setting": "[1]", "result": "almost no antimicrobial activity"},
      {"measurement": "inhibitory activity against the influenza virus replication relative to cytotoxicity", "setting": "[2]", "result": "approximately 100 times"},
      {"measurement": "IC50", "setting": "[3]", "result": 0.07, "unit": "µg/mL"}
    ]}
  ]
}
